This note sets out measurements from patent US12497396B2, “Nitrogen-containing heterocyclic derivatives, method therefor and application therefor as inhibitors of KRAS G12C for the treatment of cancers” (SHANGHAI HANSOH BIOMEDICAL CO., LTD., priority 2019, dated 2025).

Usually IC50 stands for the concentration that inhibits the measured activity by half. The fraction unbound is free concentration divided by total concentration. A lower fraction unbound goes with little free substance.

Each structure is given as a SMILES string. Bounds are passed on as bounds.

Data set [1] deals with phosphorylated ERK in KRAS G12C mutant cells Mia PaCa-2. Description: Inhibition of phosphorylated ERK level in Mia PaCa-2 cells (LANCE Ultra). The class given is cell-based. The note with it: Homo sapiens, 2 hours, read-out: Mia PaCa-2 pERK IC50. An excerpt: As a preferred embodiment of the present disclosure, the method for detecting the inhibitory activity of phosphorylated ERK level is as follows: through cell culture, adding different concentrations of compound solutions to the cultured cells, continuing the culture for a period of time, lysing the cells, followed by centrifugation and […]; • further, the method of cell culture is: adjusting the cells to a suitable cell concentration with a complete medium, preferably the cell concentration is 1×10^6/mL, and spreading the cell suspension on a well plate for culture.
When Mia PaCa-2 cells were cultured to the appropriate fusion level, Mia PaCa-2 cells were collected, and the cell density was adjusted to 1×10^6/mL using complete culture medium, the cell suspension was spread on a 96-well plate, 50 μL per well, and placed adherent to the wall in a 37° C., 5% CO2 incubator overnight, compound solutions with different concentrations were prepared using DMSO and complete culture medium, a solvent control was set, the compound solution was added to a 96-well plate, 25 μL per well, and placed in a 37° C., 5% CO2 incubator for 2 hours of continuous culture, the supernatant was discarded from the cell culture plate, 50 μL of lysis solution was added to each well, and lysing was performed for 30 minutes by shaking at room temperature, then the mixture was centrifuged at 1000 rpm for 1 minute, 15 μL of supernatant was transferred to 384 well plate, 5 μL of detection mixture (Eu-labeled anti-ERK1/2 (T202-Y204) antibody with final concentration of 0.5 nM and ULight labeled anti-ERK1/2 antibody with final concentration of 5 nM) was added to each well, centrifuged at 1000 rpm for 1 minute and mixed uniformly, the reaction was carried out overnight at room temperature, the plate was read with BioTek Synergy H1, and the signal values was detected at 620 nm and 665 nm emission wavelengths by time-resolved fluorescence program.
The ratio of the signal values at 665 nm and 620 nm emission wavelength were calculated, and the ratio was used to calculate the inhibition rate, the concentration and the inhibition rate were fitted to a nonlinear regression curve using Graphpad Prism software, then the IC50 value was obtained.
Background: Time-resolved FRET reads energy transfer from a long-lived donor to a nearby acceptor.

The target in another data set is T1, hERG potassium channel (Homo sapiens, UniProt Q12809).
T1 construct: expressed in transfected cells; host or cells: CHO-hERG cells
Description: hERG potassium channel inhibitory activity (Qpatch, CHO-hERG cells). Type of data set: cell-based. The conditions noted are these: inhibition of hERG current, multiple concentrations. As for the experimental part: 7.1.1 CHO-hERG cells were cultured in a 175 cm^2 flask, when the cell density reached 60-80%, the culture medium was removed, the cells were washed with 7 mL PBS, and then digested with 3 mL Detachin.
7.1.2 After complete digestion, 7 mL culture medium was added to neutralize, then the mixture was centrifuged, the supernatant was aspirated, and then 5 mL culture medium was added to re-suspend, ensuring 2-5×10^6/mL of cell density.
The process of single cell high impedance sealing and whole cell mode formation were all automatically completed by Qpatch instrument, after obtaining the whole cell recording mode, the cells were clamped at −80 mV, before giving a 5-second +40 mV depolarization stimulus, a 50 millisecond −50 mV prevoltage was given first, and then repolarized to −50 mV for 5 seconds, then returned to −80 mV. This voltage stimulation was applied every 15 seconds and recorded for 2 minutes before giving extracellular fluid recordings for 5 minutes, and then the administration process was started, the compound concentration was given from the lowest test concentration, each test concentration was given for 2.5 minutes, and the positive control compound 0.1 μM of Cisapride was given after all concentrations were continuously given. At least 3 cells (n≥3) were tested at each concentration.
7.4.1 20 mM of compound mother liquor was diluted with extracellular fluid, 5 μL of 20 mM compound mother liquor was added into 2495 μL of extracellular fluid and diluted 500-fold to 40 μM, and then the final concentration to be tested was obtained by sequential 3-fold serial dilutions in extracellular solution containing 0.2% DMSO.
7.4.2 The highest test concentration was 40 μM, in a total of 6 concentrations of 40, 13.33, 4.44, 1.48, 0.49 and 0.16 μM respectively.
7.4.3 The content of DMSO in the final test concentration was not more than 0.2%, and this concentration of DMSO had no effect on hERG potassium channel.
The experimental data were analyzed by XLFit software.

Data set [2] can be described thus: Plasma protein binding rate, human plasma. Type of data set: in vitro ADME. The conditions noted are these: 37° C. The method, then: (§1) The embodiment compound was prepared into a 1 mM solution A with DMSO.
(§2) Solution A was added to the plasma solution and prepared into a 5 μM solution B.
(§3) • 1) 200 μL of solution B was added into the membrane. • 2) 350 μL of PBS was added to the outside of the membrane. • 3) Incubating in a 37° C. water bath for 6 hours. • 4) The samples were processed for dilution and detected by mass spectrometry.
(§4) • Instrument: Shimadzu LC-20 AD; • Chromatographic column: phenomenex Gemiu® C18 (50*4.6 mm, 5 μM particle size); • Mobile phase: A: Acetonitrile, B: 0.1% formic acid solution 0-0.5 min: 5% A→90% A, 2.0-2.1 min: 90% A→5% A; flow rate: 0.8 mL/min; running time: 5.0 min; injection volume: 5 μL.
(§5) • Instrument: API4000 Liquid Chromatography-Mass Spectrometry, AB, USA; • the ion source was electrospray ionization source (ESI); • the temperature of dry gas (N2) was 500° C.; • electrospray voltage was 5500V; • the detection method was positive ion detection; • the scanning mode was selective response monitoring (MRM); the scanning time was 0.1 s.

A short description of data set [3]: Plasma protein binding rate, rat plasma. Type of data set: in vitro ADME. The note with it: 37° C. The method, then:
as §1, §2, §3, §4, §5

T1 sequence (Q12809 whole entry): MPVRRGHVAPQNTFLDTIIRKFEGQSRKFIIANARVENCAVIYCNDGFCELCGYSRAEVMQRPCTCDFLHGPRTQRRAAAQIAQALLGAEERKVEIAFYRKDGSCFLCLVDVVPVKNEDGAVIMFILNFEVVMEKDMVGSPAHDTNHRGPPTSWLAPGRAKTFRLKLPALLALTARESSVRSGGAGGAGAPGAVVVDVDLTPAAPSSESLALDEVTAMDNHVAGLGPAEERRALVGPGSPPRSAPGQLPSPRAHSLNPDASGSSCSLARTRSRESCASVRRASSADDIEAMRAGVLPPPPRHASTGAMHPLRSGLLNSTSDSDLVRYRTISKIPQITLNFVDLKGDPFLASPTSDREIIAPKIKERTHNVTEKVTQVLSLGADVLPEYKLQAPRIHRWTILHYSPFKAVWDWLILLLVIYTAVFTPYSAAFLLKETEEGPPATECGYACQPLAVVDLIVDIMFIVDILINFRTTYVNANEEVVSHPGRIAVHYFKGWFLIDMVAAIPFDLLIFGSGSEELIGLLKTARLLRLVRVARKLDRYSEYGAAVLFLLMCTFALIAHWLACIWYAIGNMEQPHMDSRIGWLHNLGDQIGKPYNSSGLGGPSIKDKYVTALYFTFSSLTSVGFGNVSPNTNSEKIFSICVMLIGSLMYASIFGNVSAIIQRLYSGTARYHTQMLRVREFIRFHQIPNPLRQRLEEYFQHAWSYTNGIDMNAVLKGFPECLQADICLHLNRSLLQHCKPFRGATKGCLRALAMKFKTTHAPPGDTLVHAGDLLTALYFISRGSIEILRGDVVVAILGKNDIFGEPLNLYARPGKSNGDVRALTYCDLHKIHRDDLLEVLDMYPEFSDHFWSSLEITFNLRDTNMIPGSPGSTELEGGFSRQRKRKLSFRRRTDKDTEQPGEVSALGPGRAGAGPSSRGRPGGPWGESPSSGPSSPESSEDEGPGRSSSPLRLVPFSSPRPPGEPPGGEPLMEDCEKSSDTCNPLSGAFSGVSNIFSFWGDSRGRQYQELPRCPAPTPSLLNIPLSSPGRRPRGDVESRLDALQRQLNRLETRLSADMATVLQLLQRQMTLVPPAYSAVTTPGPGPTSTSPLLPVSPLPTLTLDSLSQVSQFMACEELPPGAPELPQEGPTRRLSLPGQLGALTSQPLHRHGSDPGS

With `C=CC(=O)N1C[C@H](C)N(c2nc(=O)n(-c3c(SC)ccnc3C(C)C)c3nc(-c4c(O)cccc4F)c(F)cc23)C[C@H]1C` (single isomer, unassigned) [Embodiment 114-1], the results for the IC50 (in data set [1]; at hERG potassium channel) were 0.038 µM and more than 30 µM, respectively. The fraction unbound at 6 h, 5 μM in data set [2] was 0.02; in data set [3], 0.095.
Regarding `C=CC(=O)N1C[C@H](C)N(c2nc(=O)n(-c3c(SC)ccnc3C(C)C)c3nc(-c4c(N)ccc(Cl)c4F)c(Cl)cc23)C[C@H]1C` (single isomer, unassigned) [Embodiment 165-1], the values for the IC50 (in data set [1]; against hERG potassium channel) were 0.0042 µM and more than 30 µM, respectively. The results for the fraction unbound at 6 h, 5 μM in data set [2] and in data set [3] were 0.003 and 0.021, respectively.
`C=CC(=O)N1C[C@H](C)N(c2nc(=O)n(-c3c(SC)ccnc3C(C)C)c3nc(-c4c(O)cccc4F)c(Cl)cc23)C[C@H]1C` (single isomer, unassigned) [Embodiment 166-1]: the IC50 was 0.02 µM in data set [1] and more than 30 µM at hERG potassium channel. Further, the free fraction (fraction unbound) at 6 h, 5 μM in data set [2] was 0.032; in data set [3] it was 0.046.
